Columns and labels:
HEK293T cells = experiment: Nuclear-cytoplasmic localization of dCas9-Tet1 constructs with or without gRNA; type: cell-based; details: for induction index (nuclear-cytoplasmic ratio with sgRNA normalized to that without sgRNA): HEK293T cells
Excerpt: FIGS. 8A-8E depict a modified CRISPR system for editing 5-cytosine DNA methylation in the mammalian genome. FIG. 8A depicts design of dCas9-effector constructs with nuclear localization signal (NLS) located at different positions, and guide RNA (gRNA) or enhanced guide RNA (E-gRNA) with CMV-driven puro-T2A-Cherry cassette. Ub: human Ubiquitin C promoter. […] FIG. 8C provides comparison of the cellular localization of dCas9-NLS-Tet1 and NLS-dCas9-NLS-Tet1 in HEK293T cells with or without co-expression of a gRNA or E-gNRA targeting the same position in the MyoD locus. […] Co-expression of either gRNA or E-gRNA induced cytoplasm-to-nucleus translocation of these two proteins. Stained in green for dCas9, red for Cherry and blue for DAPI in the merged images. The red dashed lines in the first two panels indicate the cross section of the images for GFP intensity quantification. Scale bar: 10 um. FIG. 8D provides quantification of the nuclear-cytoplasmic ratio of dCas9-NLS-Tet1 and NLS-dCas9-NLS-Tet1 in HEK293T cells in the absence or presence of a gRNA, or an E-gNRA in a Box and Whiskers plot. Average dCas9 intensity of cytoplasmic and nuclear domain along a cross-sectional line as illustrated in C was used for the quantification. “+” denotes mean value of the 20 data points in each group; the boxes indicate the extreme data points (top and bottom bars), the 25-75% interval (box), and the median (central line). […] We reasoned that the combination with the highest induction index would result in the best signal-to-noise ratio for targeted DNA methylation editing.
To achieve targeted editing of DNA methylation, we fused dCas9 with enzymes in the methylation/demethylation pathway (FIG. 1A). […] Both gRNA constructs contain a puro selection cassette and a Cherry fluorescence protein cassette driven by an independent CMV promoter that allows for Fluorescence Activated Cell Sorting (FACS) of gRNA-expressing cells after lentiviral transduction (FIG. 8A). […]

[1] = test system: MyoD distal enhancer (DMR-5) / MyoD expression; experiment: MyoD expression in C3H10T1/2 cells (RT-qPCR); type: cell-based, mouse

dCas9-Tet1: catalytically inactive Cas9 (dCas9) fused through NLS to the Tet1 catalytic domain, SEQ ID NO: 159; lentivirally expressed with gRNAs
induction index (nuclear-cytoplasmic ratio with sgRNA normalized to that without sgRNA) (HEK293T cells; co-expression of E-gRNA targeting the MyoD locus): 3.22 folds | induction index (nuclear-cytoplasmic ratio with sgRNA normalized to that without sgRNA) (HEK293T cells; co-expression of gRNA targeting the MyoD locus): 3.17 folds | cellular localization (HEK293T cells; in the absence of sgRNAs, transfected HEK293T cells): predominantly excluded from the nuclear compartment | induction of MyoD expression ([1]; MyoD DMR-5 gRNAs combined with 5-Aza treatment (48-hour)): higher induction of MyoD | induction of MyoD expression ([1]; with 4 gRNAs targeting DMR-5, C3H10T1/2 cells, 2 days, Cherry positive sorted): 3 fold

Reference: patent publication US12060588B2, “Methods of editing DNA methylation” (Whitehead Institute for Biomedical Research, priority 2016, dated 2024)
